This passage reports MIC results from patent publication US4698352A, “4-oxo-1,4-dihydronicotinic acid derivatives, salts thereof, and antibacterial agents containing the same” (Toyama Chemical Co., Ltd., priority 1982, dated 1987).

≈ marks a conversion by molar mass, not a printed value. Like-named read-outs stand apart in the source and are kept apart here.

Common to all, as to experiment: Antibacterial activity (MIC), agar dilution
Holding throughout (format): cell-based
On the technique in general: In agar dilution, organisms are placed on agar that contains the substance at set levels.

One assay relates to Aci. antitratus A-6. The note with it: Aci. antitratus A-6, 10^6 cells per ml, 37° C., 20 hours. The source says: (§1) The amount of bacteria inoculated was 10^4 cells per plate (10^6 cells per ml).
In another assay the test system is E. coli NIHJ JC-2. To be noted: E. coli NIHJ JC-2, 10^6 cells per ml, 37° C., 20 hours.
Excerpt: as §1

The next assay concerns E. coli TK-111. To be noted: E. coli TK-111, 10^6 cells per ml, 37° C., 20 hours.
Excerpt: as §1

In the next assay the test system is Ent. cloacae IID977. To be noted: Ent. cloacae IID977, 10^6 cells per ml, 37° C., 20 hours.
Excerpt: as §1

The test system of another assay is Kl. pneumoniae Y-41. The note with it: 37° C., 20 hours.
Excerpt: as §1

The next assay concerns Kl. pneumoniae Y-50. To be noted: 10^6 cells per ml, 37° C.
Excerpt: as §1

For the next assay, the system named is Pro. mirabilis T-111. The note with it: 37° C.
Excerpt: as §1

A further assay deals with Pro. morganii T-216. The note with it: 37° C.
Excerpt: as §1

A further assay has as its system Pro. vulgaris GN3027. To be noted: Pro. vulgaris GN3027, 10^6 cells per ml, 37° C., 20 hours.
Excerpt: as §1

In another assay the test system is Ps. aeruginosa IFO3445. To be noted: Ps. aeruginosa IFO3445, 10^6 cells per ml, 37° C., 20 hours.
Excerpt: as §1

The subject of a further assay is Ps. aeruginosa S-68. The note with it: Ps. aeruginosa S-68, 10^6 cells per ml, 37° C., 20 hours.
Excerpt: as §1

The next assay deals with St. aureus FDA209P. The note with it: St. aureus FDA209P, 10^6 cells per ml, 37° C., 20 hours.
Excerpt: as §1

The next assay has as its system E. coli TK-3*. To be noted: E. coli TK-3, penicillinase-producing, 10^6 cells per ml.
Excerpt: as §1
(§2) * Penicillinase-producing bacteria

The next assay deals with Kl. pneumoniae Y-4*. The note with it: Kl. pneumoniae Y-4, penicillinase-producing, 10^6 cells per ml.
Excerpt: as §1, §2

Another assay deals with Ps. aeruginosa GN3379*. To be noted: Ps. aeruginosa GN3379, penicillinase-producing, 10^6 cells per ml.
Excerpt: as §1, §2

The test system of another assay is St. aureus F-137*. The note with it: St. aureus F-137, penicillinase-producing, 10^6 cells per ml.
Excerpt: as §1, §2

The subject of the next assay is E. coli GN5482**. To be noted: E. coli GN5482, cephalospolinase-producing, 10^6 cells per ml.
Excerpt: as §1
(§3) ** Cephalospolinase-producing bacteria

The next assay has as its system Pro. vulgaris GN76**. The note with it: Pro. vulgaris GN76, cephalospolinase-producing, 10^6 cells per ml.
Excerpt: as §1, §3

The test system of the next assay is Ps. aeruginosa GN918**. To be noted: Pseudomonas aeruginosa, Ps. aeruginosa GN918, cephalospolinase-producing, 10^6 cells per ml.
Excerpt: as §1, §3

Setting [1] is: Morganella morganii, T216, 10^6 cells per ml, 20 hours, read-out: MIC.
Where [2] appears, read: Escherichia coli, NIHJJC2, 20 h, read-out: MIC.
The mark [3] stands for this setting: Escherichia coli, TK111, 20 h, read-out: MIC.
Setting [4] is: Enterobacter cloacae, IID977, 20 h, read-out: MIC.
Setting [5] is: Klebsiella pneumoniae, Y41, 10^6 cells per ml, read-out: MIC.
[6] abbreviates: Klebsiella pneumoniae, Y50, 20 h.
Where [7] appears, read: Proteus vulgaris, GN3027, 20 h, read-out: MIC.
[8] abbreviates: Pseudomonas aeruginosa, read-out: MIC.
The mark [9] stands for this setting: Pseudomonas aeruginosa, S68, read-out: MIC.
[10] abbreviates: Staphylococcus aureus, FDA209P, 20 h, read-out: MIC.
[11] abbreviates: Escherichia coli, 20 h, read-out: MIC.
[12] abbreviates: Klebsiella pneumoniae, 20 h, read-out: MIC.
[13] abbreviates: Pseudomonas aeruginosa, 20 h, read-out: MIC.
[14] abbreviates: Staphylococcus aureus, 20 h, read-out: MIC.
[15] abbreviates: Proteus vulgaris, 20 h, read-out: MIC.

By MIC is commonly meant the smallest concentration in the dilution series that meets the test's criterion for growth inhibition.

For `CC(=O)Oc1ccc(-n2cc(C(=O)OCCN(C)C)c(=O)cc2-c2ccc(N(C)C)cc2)cc1` [drawing 38], the MIC amounted to 0.39 µg/mL (≈ 0.841 µM) with Aci. antitratus A-6; 0.39 µg/mL (≈ 0.841 µM) in the assay on E. coli NIHJ JC-2; 0.2 µg/mL (≈ 0.431 µM) with E. coli TK-111; 1.56 µg/mL (≈ 3.37 µM) against Ent. cloacae IID977; 3.13 µg/mL (≈ 6.75 µM) with Kl. pneumoniae Y-41 (10^6 cells per ml); 0.78 µg/mL (≈ 1.68 µM) against Kl. pneumoniae Y-50 (20 hours). Besides, the MIC is 6.25 µg/mL (≈ 13.5 µM) with Pro. mirabilis T-111 (10^6 cells per ml, 20 hours); 3.13 µg/mL (≈ 6.75 µM) against Pro. morganii T-216 (10^6 cells per ml, 20 hours); 0.39 µg/mL (≈ 0.841 µM) against Pro. vulgaris GN3027; 12.5 µg/mL (≈ 27 µM) in the assay on Ps. aeruginosa IFO3445; 6.25 µg/mL (≈ 13.5 µM) against Ps. aeruginosa S-68; 0.39 µg/mL (≈ 0.841 µM) in the assay with St. aureus FDA209P. The MIC is 1.56 µg/mL (≈ 3.37 µM) against E. coli TK-3*; 6.25 µg/mL (≈ 13.5 µM) in the assay with Kl. pneumoniae Y-4*; 12.5 µg/mL (≈ 27 µM) with Ps. aeruginosa GN3379*; 0.39 µg/mL (≈ 0.841 µM) in the assay on St. aureus F-137*; at most 0.05 µg/mL in the assay with E. coli GN5482**; 1.56 µg/mL (≈ 3.37 µM) with Pro. vulgaris GN76**. This molecule also yielded an MIC with Ps. aeruginosa GN918** (GN918, 20 h) of 3.13 µg/mL (≈ 6.75 µM).

As to `CC(=O)Oc1ccc(-n2cc(C(=O)OCCN(C)C)c(=O)cc2-c2ccc(N(C)C)cc2)cc1` [drawing 67], the MIC in the assay with Aci. antitratus A-6 was 0.2 µg/mL (≈ 0.431 µM); against E. coli NIHJ JC-2, 0.2 µg/mL (≈ 0.431 µM); in the assay with E. coli TK-111, 0.1 µg/mL (≈ 0.216 µM); against Ent. cloacae IID977, 0.78 µg/mL (≈ 1.68 µM); against Kl. pneumoniae Y-41 (10^6 cells per ml) it was 3.13 µg/mL (≈ 6.75 µM); in the assay with Kl. pneumoniae Y-50 (20 hours), 0.39 µg/mL (≈ 0.841 µM). In addition, the MIC in the assay with Pro. mirabilis T-111 (10^6 cells per ml, 20 hours) came out at 3.13 µg/mL (≈ 6.75 µM); in the assay on Pro. morganii T-216 (setting [1]) it was 1.56 µg/mL (≈ 3.37 µM); against Pro. vulgaris GN3027, 0.2 µg/mL (≈ 0.431 µM); in the assay with Ps. aeruginosa IFO3445, 12.5 µg/mL (≈ 27 µM); against Ps. aeruginosa S-68 it was 6.25 µg/mL (≈ 13.5 µM); with St. aureus FDA209P it was 0.2 µg/mL (≈ 0.431 µM). Further, the MIC in the assay with E. coli TK-3* was 0.78 µg/mL (≈ 1.68 µM); in the assay with Kl. pneumoniae Y-4* it was 3.13 µg/mL (≈ 6.75 µM); in the assay on Ps. aeruginosa GN3379* (Pseudomonas aeruginosa, GN3379, 20 h), 6.25 µg/mL (≈ 13.5 µM); against St. aureus F-137* it was 0.2 µg/mL (≈ 0.431 µM); in the assay on E. coli GN5482**, at most 0.05 µg/mL; against Pro. vulgaris GN76**, 1.56 µg/mL (≈ 3.37 µM). For the same molecule, the MIC with Ps. aeruginosa GN918** (20 h, read-out: MIC) worked out at 1.56 µg/mL (≈ 3.37 µM).

Turning to `O=C(O)c1cn(-c2ccc(F)cc2)c(C=Cc2cccnc2)cc1=O` [drawing 205], the MIC came out at 3.13 µg/mL (≈ 9.31 µM) in the assay with Aci. antitratus A-6 (20 h, read-out: MIC); 1.56 µg/mL (≈ 4.64 µM) with E. coli NIHJ JC-2 (setting [2]); 0.78 µg/mL (≈ 2.32 µM) in the assay on E. coli TK-111 (setting [3]); 3.13 µg/mL (≈ 9.31 µM) in the assay on Ent. cloacae IID977 (setting [4]); 6.25 µg/mL (≈ 18.6 µM) in the assay with Kl. pneumoniae Y-41 (setting [5]); 0.78 µg/mL (≈ 2.32 µM) against Kl. pneumoniae Y-50 (setting [6]). The minimal inhibitory concentration (MIC) in the assay with Pro. mirabilis T-111 (Proteus mirabilis, T111, 10^6 cells per ml, 20 hours, read-out: MIC) amounted to 12.5 µg/mL (≈ 37.2 µM); against Pro. morganii T-216 (Morganella morganii, T216, 20 h, 10^6 cells per ml), 6.25 µg/mL (≈ 18.6 µM); with Pro. vulgaris GN3027 (setting [7]), 0.39 µg/mL (≈ 1.16 µM); with Ps. aeruginosa IFO3445 (setting [8]) it was 25 µg/mL (≈ 74.3 µM); in the assay on Ps. aeruginosa S-68 (setting [9]) it was 12.5 µg/mL (≈ 37.2 µM); in the assay with St. aureus FDA209P (setting [10]), 3.13 µg/mL (≈ 9.31 µM). Also, the MIC in the assay on E. coli TK-3* (setting [11]) worked out at 3.13 µg/mL (≈ 9.31 µM); in the assay on Kl. pneumoniae Y-4* (setting [12]), 6.25 µg/mL (≈ 18.6 µM); in the assay with Ps. aeruginosa GN3379* (setting [13]) it was 25 µg/mL (≈ 74.3 µM); in the assay on St. aureus F-137* (setting [14]), 3.13 µg/mL (≈ 9.31 µM); in the assay on E. coli GN5482** (setting [11]), 0.2 µg/mL (≈ 0.595 µM); in the assay on Pro. vulgaris GN76** (setting [15]) it was 1.56 µg/mL (≈ 4.64 µM). Besides, the MIC in the assay with Ps. aeruginosa GN918** (20 h, read-out: MIC) was 12.5 µg/mL (≈ 37.2 µM).

On to `CN(C)c1ccc(-c2cc(=O)c(C(=O)O)cn2-c2ccc(O)cc2)cc1` [drawing 206], for which the MIC is 0.39 µg/mL (≈ 1.11 µM) with Aci. antitratus A-6 (20 h, read-out: MIC); 0.2 µg/mL (≈ 0.571 µM) in the assay on E. coli NIHJ JC-2 (setting [2]); 0.05 µg/mL (≈ 0.143 µM) with E. coli TK-111 (setting [3]); 0.39 µg/mL (≈ 1.11 µM) in the assay on Ent. cloacae IID977 (setting [4]); 0.78 µg/mL (≈ 2.23 µM) in the assay with Kl. pneumoniae Y-41 (setting [5]); 0.2 µg/mL (≈ 0.571 µM) with Kl. pneumoniae Y-50 (setting [6]). Also, the MIC with Pro. mirabilis T-111 (Proteus mirabilis, T111, 20 h, 10^6 cells per ml) stood at 1.56 µg/mL (≈ 4.45 µM); in the assay on Pro. morganii T-216 (setting [1]), 0.78 µg/mL (≈ 2.23 µM); in the assay on Pro. vulgaris GN3027 (setting [7]), 0.1 µg/mL (≈ 0.285 µM); in the assay with Ps. aeruginosa IFO3445 (setting [8]) it was 3.13 µg/mL (≈ 8.93 µM); with Ps. aeruginosa S-68 (setting [9]), 3.13 µg/mL (≈ 8.93 µM); in the assay with St. aureus FDA209P (setting [10]) it was 0.2 µg/mL (≈ 0.571 µM). Besides, the MIC in the assay on E. coli TK-3* (setting [11]) amounted to 0.39 µg/mL (≈ 1.11 µM); in the assay with Kl. pneumoniae Y-4* (setting [12]), 1.56 µg/mL (≈ 4.45 µM); in the assay with Ps. aeruginosa GN3379* (setting [13]), 3.13 µg/mL (≈ 8.93 µM); with St. aureus F-137* (setting [14]), 0.1 µg/mL (≈ 0.285 µM); in the assay on E. coli GN5482** (setting [11]), 0.05 µg/mL (≈ 0.143 µM); in the assay with Pro. vulgaris GN76** (setting [15]), 0.39 µg/mL (≈ 1.11 µM). Further, in the assay on Ps. aeruginosa GN918** (20 h, read-out: MIC), the minimal inhibitory concentration (MIC) stood at 1.5 µg/mL (≈ 4.28 µM).
